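Test compounds were applied to cells in 96-well plates for 48 hours at 5 doses. The concentration for 50% growth inhibition is given as GI50.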 The source made the active and inactive calls. Cut-off read from the data, not from the text of the source: active = GI50 up to about 1.1 µM and inactive = higher. Where only a bound is given, the exact number is not on record here.

Among the test systems are RPMI-8226; OVCAR-5; HT-29; KM12; LOX IMVI; UACC-257; HCC 2998; 786-0; HOP-92; IGROV-1; NCI-H522; MOLT-4; SK-MEL-2; OVCAR-3; A549; Malme-3M; A498.
Test in all cases: NCI anticancer screen, dose series, 48 h

On to `O=c1cc(-c2ccccc2)oc2cc(OCCCOc3ccc4c(=O)cc(-c5ccccc5)oc4c3)ccc12`, for which the GI50 in the assay with RPMI-8226, in the assay with OVCAR-5, with HT-29, in the assay on KM12, in the assay on LOX IMVI and with UACC-257 was > 100 µM (inactive) throughout. Also, the GI50 in the assay on HCC 2998, in the assay on 786-0, in the assay with HOP-92, in the assay on IGROV-1, in the assay with NCI-H522 and with MOLT-4 was > 100 µM (inactive) each time. Also, the GI50 in the assay on SK-MEL-2, with OVCAR-3, in the assay on A549 and in the assay on Malme-3M was > 100 µM (inactive) throughout.

Consider `C=CCCC(OCOCCOC)c1cc(C)c(O[Si](C)(C)C(C)(C)C)c(C)c1` (centres undefined), for which the GI50 in the assay on A498 was 22.8 µM (inactive); with RPMI-8226, 4.81 µM (inactive); in the assay with OVCAR-5, 17 µM (inactive); in the assay with KM12, 13.5 µM (inactive); in the assay with LOX IMVI, 13 µM (inactive); in the assay with UACC-257 it was 4.58 µM (inactive). The GI50 in the assay with HCC 2998 is 14 µM (inactive); with 786-0 it was 14.9 µM (inactive); with IGROV-1, 19.9 µM (inactive); in the assay with NCI-H522 it was 11.8 µM (inactive); in the assay with MOLT-4 it was 4.4 µM (inactive); in the assay on SK-MEL-2, 15.8 µM (inactive). For the same molecule, the GI50 in the assay on OVCAR-3 is 13.6 µM (inactive); in the assay with A549, 16.4 µM (inactive); in the assay on Malme-3M, 19.6 µM (inactive).

On to `NNC(=O)N/N=C(/CC1(O)C(=O)Nc2ccc(Br)cc21)c1ccccc1` (centres undefined), for which the GI50 is 48.4 µM (inactive) in the assay on RPMI-8226; 30.6 µM (inactive) with HT-29; 25.7 µM (inactive) in the assay on KM12; 18.1 µM (inactive) with LOX IMVI; 77.3 µM (inactive) in the assay with UACC-257; 57.3 µM (inactive) with 786-0. In addition, the GI50 was 18.1 µM (inactive) in the assay with HOP-92; 41.1 µM (inactive) with IGROV-1; 18.8 µM (inactive) in the assay on NCI-H522; 16.7 µM (inactive) with MOLT-4; 34.4 µM (inactive) in the assay with SK-MEL-2; 41.8 µM (inactive) in the assay with OVCAR-3. Besides, the results for the GI50 in the assay on A549 and in the assay with Malme-3M were 50 µM (inactive) and 33.9 µM (inactive), respectively.

For `COC(=O)C(C#N)C1NC(=O)c2ccccc21` (centres undefined), the GI50 with A498, with RPMI-8226, with OVCAR-5, in the assay on HT-29, in the assay on KM12 and in the assay on LOX IMVI was > 100 µM (inactive) in each case. Besides, the GI50 in the assay with UACC-257, in the assay with HCC 2998, in the assay on 786-0, in the assay on HOP-92, in the assay on IGROV-1 and in the assay with NCI-H522 was > 100 µM (inactive) in each case. Further, the GI50 in the assay with MOLT-4, in the assay on OVCAR-3, in the assay with A549 and in the assay on Malme-3M was > 100 µM (inactive) each time.

With `BrC/C=C/C[P+](c1ccccc1)(c1ccccc1)c1ccccc1`, the GI50 is 0.927 µM (active) with RPMI-8226; 31 µM (inactive) with OVCAR-5; 4.29 µM (inactive) with KM12; 10.4 µM (inactive) in the assay with LOX IMVI; 8.57 µM (inactive) with UACC-257; 35.2 µM (inactive) in the assay on HCC 2998. In addition, the GI50 in the assay with 786-0 was 10.3 µM (inactive); with HOP-92 it was 11.7 µM (inactive); with IGROV-1, 55.5 µM (inactive); in the assay with NCI-H522, 12.4 µM (inactive); with MOLT-4 it was > 100 µM (inactive); in the assay on SK-MEL-2, 10.8 µM (inactive). The GI50 in the assay on OVCAR-3 is 7.28 µM (inactive); with A549 it was 7.87 µM (inactive); in the assay on Malme-3M it was 12.4 µM (inactive).

Turning to `CC1(C)OC(=O)C(c2ccsc2)C(=O)O1`, the GI50 in the assay on RPMI-8226, in the assay with OVCAR-5, in the assay with HT-29, with KM12, with LOX IMVI and in the assay on UACC-257 was > 100 µM (inactive) each time. For the same molecule, the GI50 in the assay with HCC 2998, in the assay with 786-0, with HOP-92, in the assay with NCI-H522, in the assay with MOLT-4 and in the assay on SK-MEL-2 was > 100 µM (inactive) throughout. The GI50 in the assay on OVCAR-3, in the assay on A549 and in the assay on Malme-3M was > 100 µM (inactive) in each case.

As to `C1=CC=C2NCCSCC/N=C3/C=CC=CC=C3NCCSCC/N=C\2C=C1`, the GI50 in the assay with A498, in the assay on RPMI-8226, in the assay with OVCAR-5, with HT-29, in the assay with KM12 and in the assay with LOX IMVI was > 100 µM (inactive) throughout. Also, the GI50 in the assay with UACC-257, in the assay with HCC 2998, in the assay with 786-0, in the assay on IGROV-1, in the assay on NCI-H522 and in the assay with MOLT-4 was > 100 µM (inactive) in each case. For the same molecule, the GI50 with SK-MEL-2, with OVCAR-3, in the assay with A549 and with Malme-3M was > 100 µM (inactive) throughout.

Consider `CN(C)CCC1(C2=CCCC2)CC/C(=C\c2ccccc2Cl)C1=O` (centres undefined), for which the GI50 with A498 was 14.1 µM (inactive); in the assay with RPMI-8226, 18.3 µM (inactive); in the assay with OVCAR-5, 15.7 µM (inactive); in the assay with HT-29 it was 6.44 µM (inactive); in the assay with KM12 it was 12.9 µM (inactive); in the assay with UACC-257, 14.8 µM (inactive). Besides, the GI50 with HCC 2998 is 8.61 µM (inactive); in the assay with 786-0 it was 12.6 µM (inactive); in the assay on HOP-92, 12.4 µM (inactive); with IGROV-1, 19.8 µM (inactive); in the assay with MOLT-4, 4.57 µM (inactive); in the assay with SK-MEL-2, 13.5 µM (inactive). The GI50 in the assay on OVCAR-3 is 14.3 µM (inactive); in the assay with A549, 13.8 µM (inactive); in the assay with Malme-3M, 14.5 µM (inactive).

In the case of `O=C(Nc1ccc(Cl)cc1Cl)c1c/c(=N\O)c2ccc(O)cc2o1`, the GI50 with A498, with RPMI-8226, with OVCAR-5, in the assay on HT-29, in the assay with KM12 and with LOX IMVI was > 100 µM (inactive) each time. The GI50 with UACC-257, with 786-0, with HOP-92, with IGROV-1, in the assay on NCI-H522 and in the assay with MOLT-4 was > 100 µM (inactive) each time. Besides, the GI50 with OVCAR-3, in the assay with A549 and in the assay on Malme-3M was > 100 µM (inactive) each time.

Consider `CC(=O)NC1=C(NC(C)(C)C)C(=O)c2ccccc2C1=O`, for which the GI50 in the assay with A498 is 23.1 µM (inactive); with RPMI-8226, 11.7 µM (inactive); in the assay with OVCAR-5, 48.1 µM (inactive); in the assay with HT-29, 23.2 µM (inactive); with KM12, 30.3 µM (inactive); in the assay with LOX IMVI, 16.7 µM (inactive). The GI50 in the assay with UACC-257 was 15.9 µM (inactive); in the assay on HCC 2998, > 100 µM (inactive); in the assay with 786-0 it was 3.4 µM (inactive); with HOP-92, 19.1 µM (inactive); with IGROV-1, 30.2 µM (inactive); in the assay on MOLT-4, 6.43 µM (inactive). The GI50 in the assay with SK-MEL-2 is 20.6 µM (inactive); in the assay on OVCAR-3 it was 15.6 µM (inactive); in the assay on A549, 48.1 µM (inactive); in the assay on Malme-3M, 19.5 µM (inactive).

On to `COc1cc(OC)c([C@@H]2OC(=O)C3C2C(=O)O[C@H]3c2cc(OC)c(OC)cc2OC)cc1OC` (some centres undefined), for which the GI50 in the assay on A498, in the assay with RPMI-8226, in the assay on HT-29, with KM12, with UACC-257 and in the assay on HCC 2998 was > 100 µM (inactive) in each case. Moreover, the GI50 in the assay on 786-0 was > 100 µM (inactive); in the assay on HOP-92, > 10 µM (inactive); in the assay on IGROV-1, > 10 µM (inactive); in the assay with MOLT-4, > 100 µM (inactive); in the assay with SK-MEL-2, > 100 µM (inactive); in the assay with OVCAR-3, > 100 µM (inactive). In addition, the GI50 in the assay on A549 was > 100 µM (inactive).

`O=C(CC(=O)c1ccc([N+](=O)[O-])cc1)C(=O)Nc1nccs1`: the GI50 in the assay on RPMI-8226, with OVCAR-5, with HT-29, with KM12, with LOX IMVI and in the assay on HCC 2998 was > 100 µM (inactive) in each case. The GI50 with 786-0, in the assay on HOP-92, in the assay with IGROV-1, in the assay with NCI-H522, with MOLT-4 and with SK-MEL-2 was > 100 µM (inactive) throughout. The GI50 with OVCAR-3, in the assay on A549 and with Malme-3M was > 100 µM (inactive) in each case.

On to `COC(=O)CC(C(C(=O)OCc1ccccc1)C(C)O)N1C(=O)OCC1c1ccccc1` (centres undefined), for which the GI50 is 22.2 µM (inactive) in the assay with A498; 27.6 µM (inactive) in the assay on RPMI-8226; > 100 µM (inactive) with HT-29; > 100 µM (inactive) in the assay with LOX IMVI; 75.7 µM (inactive) with UACC-257; > 100 µM (inactive) in the assay with HCC 2998. Moreover, the GI50 with 786-0 was > 100 µM (inactive); in the assay with IGROV-1, 69.3 µM (inactive); in the assay on MOLT-4, 29.4 µM (inactive); in the assay on SK-MEL-2, > 100 µM (inactive); in the assay with OVCAR-3 it was 93.5 µM (inactive); in the assay on A549, 44.8 µM (inactive). In the assay with Malme-3M, the GI50 is > 100 µM (inactive).

For the origin of these results see ChEMBL document CHEMBL1201862, “PubChem BioAssay data set” (2004).
